What follows are compounds tested against T1, full length SGK1 (Homo sapiens, UniProt O00141) (assay: SGK1 inhibition Assay A (Caliper LabChip electrophoretic separation of fluorescent peptide substrate and phosphorylated product)). Conditions: Assay A; 20 μM ATP, 40 min incubation; read-out: SGK1 IC50.
T1 construct: 125 μM full length SGK1 (Life Technologies Part #PR7358A); purchased Life Technologies PR7358A
T1 sequence (O00141 1-431): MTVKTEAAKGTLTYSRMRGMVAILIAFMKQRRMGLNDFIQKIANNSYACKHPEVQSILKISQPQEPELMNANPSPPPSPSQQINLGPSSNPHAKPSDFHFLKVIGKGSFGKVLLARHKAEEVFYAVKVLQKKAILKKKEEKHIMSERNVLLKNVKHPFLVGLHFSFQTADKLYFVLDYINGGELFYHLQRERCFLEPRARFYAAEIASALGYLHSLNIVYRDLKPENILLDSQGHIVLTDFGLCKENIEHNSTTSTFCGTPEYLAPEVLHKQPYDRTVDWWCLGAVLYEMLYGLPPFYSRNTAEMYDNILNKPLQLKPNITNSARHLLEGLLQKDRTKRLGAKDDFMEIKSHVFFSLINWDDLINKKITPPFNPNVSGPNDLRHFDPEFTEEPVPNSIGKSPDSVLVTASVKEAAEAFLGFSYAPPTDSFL
Type: biochemical
Compound `CN1CCN(CCOc2cc(Cl)sc2C(=O)N[C@@H]2CCCN(c3cc(-c4ccnc(C(F)F)c4)n4ncnc(N)c34)C2)CC1` [Example 342, (R)—N-(1-(4-amino-7-(2-(difluoromethyl)pyridin-4-yl)pyrrolo[2,1-f][1,2,4]triazin-5-yl)piperidin-3-yl)-5-chloro-3-(2-(4-methylpiperazin-1-yl)ethoxy)thiophene-2-carboxamide] has an IC50 of 4 nM.
`CN(C)CCOc1cc(C(F)F)sc1C(=O)N[C@@H]1CCCN(c2cc(-c3ccnc(C(F)F)c3)n3ncnc(N)c23)C1` [Example 343, (R)—N-(1-(4-amino-7-(2-(difluoromethyl)pyridin-4-yl)pyrrolo[2,1-f][1,2,4]triazin-5-yl)piperidin-3-yl)-5-(difluoromethyl)-3-(2-(dimethylamino)ethoxy)thiophene-2-carboxamide] gave an IC50 of 5 nM.
`Nc1ncnn2c(-c3ccnc(C(F)F)c3)cc(N3CCC[C@@H](NC(=O)c4sc(C(F)F)cc4N4CCOCC4)C3)c12` [Example 344, (R)—N-(1-(4-amino-7-(2-(difluoromethyl)pyridin-4-yl)pyrrolo[2,1-f][1,2,4]triazin-5-yl)piperidin-3-yl)-5-(difluoromethyl)-3-morpholinothiophene-2-carboxamide] gave an IC50 of 7 nM.
With `Nc1ncnn2c(-c3ccnc(C(F)F)c3)cc(N3CCC[C@@H](NC(=O)c4sc(C(F)F)cc4N4CC5(COC5)C4)C3)c12` [Example 345, (R)—N-(1-(4-amino-7-(2-(difluoromethyl)pyridin-4-yl)pyrrolo[2,1-f][1,2,4]triazin-5-yl)piperidin-3-yl)-5-(difluoromethyl)-3-(2-oxa-6-azaspiro[3.3]heptan-6-yl)thiophene-2-carboxamide] the IC50 was 19 nM.
`Nc1ncnn2c(-c3ccc(NS(=O)(=O)c4cc(Cl)ccc4F)cc3)cc(N3CCC[C@@H](NC(=O)c4ccc(Cl)s4)C3)c12` [Example 346, (R)—N-(1-(4-amino-7-(4-((5-chloro-2-fluorophenyl)sulfonamido)phenyl)pyrrolo[2,1-f][1,2,4]triazin-5-yl)piperidin-3-yl)-5-chlorothiophene-2-carboxamide] was tested, and the IC50 was 79 nM.
`CC(=O)N1CC=C(c2cc(N3CCC[C@@H](NC(=O)c4sc(C(F)F)cc4OC4CCNCC4)C3)c3c(N)ncnn23)C1` [Example 347, (R)—N-(1-(7-(1-acetyl-2,5-dihydro-1H-pyrrol-3-yl)-4-aminopyrrolo[2,1-f][1,2,4]triazin-5-yl)piperidin-3-yl)-5-(difluoromethyl)-3-(piperidin-4-yloxy)thiophene-2-carboxamide] was tested, and the IC50 was 9 nM.
For `COC(=O)N1CC=C(c2cc(N3CCC[C@@H](NC(=O)c4sc(C(F)F)cc4OC4CCNCC4)C3)c3c(N)ncnn23)C1` [Example 348, methyl (R)-3-(4-amino-5-(3-(5-(difluoromethyl)-3-(piperidin-4-yloxy)thiophene-2-carboxamido)piperidin-1-yl)pyrrolo[2,1-f][1,2,4]triazin-7-yl)-2,5-dihydro-1H-pyrrole-1-carboxylate], the IC50 was 6 nM.
In the case of `NC(=O)c1ccc(-c2cc(N3CCC[C@@H](NC(=O)c4sc(C(F)F)cc4OC4CCNCC4)C3)c3c(N)ncnn23)cc1F` [Example 349, (R)-N-(1-(4-amino-7-(4-carbamoyl-3-fluorophenyl)pyrrolo[2,1-f][1,2,4]triazin-5-yl)piperidin-3-yl)-5-(difluoromethyl)-3-(piperidin-4-yloxy)thiophene-2-carboxamide], the IC50 is reported as 2 nM.
Work on `CC(=O)N1CC=C(c2cc(N3CCC[C@@H](NC(=O)c4sc(C(F)F)cc4OCC4CCNCC4)C3)c3c(N)ncnn23)C1` [Example 350, (R)—N-(1-(7-(1-acetyl-2,5-dihydro-1H-pyrrol-3-yl)-4-aminopyrrolo[2,1-f][1,2,4]triazin-5-yl)piperidin-3-yl)-5-(difluoromethyl)-3-(piperidin-4-ylmethoxy)thiophene-2-carboxamide] yielded an IC50 of 13 nM.
`COC(=O)N1CC=C(c2cc(N3CCC[C@@H](NC(=O)c4sc(C(F)F)cc4OCC4CCNCC4)C3)c3c(N)ncnn23)C1` [Example 351, methyl (R)-3-(4-amino-5-(3-(5-(difluoromethyl)-3-(piperidin-4-yl-methoxy)thiophene-2-carboxamido)piperidin-1-yl)pyrrolo[2,1-f][1,2,4]triazin-7-yl)-2,5-dihydro-1H-pyrrole-1-carboxylate] gave an IC50 of 8 nM.
For `CC(=O)N1CC=C(c2cc(N3CCC[C@@H](NC(=O)c4sc(C)nc4OCCN(C)C)C3)c3c(N)ncnn23)C1` [Example 352, (R)—N-(1-(7-(1-acetyl-2,5-dihydro-1H-pyrrol-3-yl)-4-aminopyrrolo[2,1-f][1,2,4]triazin-5-yl)piperidin-3-yl)-4-(2-(dimethylamino)ethoxy)-2-methylthiazole-5-carboxamide], the IC50 was 14 nM.
With `COC(=O)N1CC=C(c2cc(N3CCC[C@@H](NC(=O)c4sc(C)nc4OCCN(C)C)C3)c3c(N)ncnn23)C1` [Example 353, Methyl (R)-3-(4-amino-5-(3-(4-(2-(dimethylamino)ethoxy)-2-methylthiazole-5-carboxamido)piperidin-1-yl)pyrrolo[2,1-f][1,2,4]triazin-7-yl)-2,5-dihydro-1H-pyrrole-1-carboxylate] the IC50 was 16 nM.
Compound `Cc1nc(OCCN(C)C)c(C(=O)N[C@@H]2CCCN(c3cc(-c4ccc(C#N)nc4)n4ncnc(N)c34)C2)s1` [Example 354, (R)-N-(1-(4-amino-7-(6-cyanopyridin-3-yl)pyrrolo[2,1-f][1,2,4]triazin-5-yl)piperidin-3-yl)-4-(2-(dimethylamino)ethoxy)-2-methylthiazole-5-carboxamide] has an IC50 of 6 nM.
`Cc1nc(OCCN(C)C)c(C(=O)N[C@@H]2CCCN(c3cc(-c4ccc(=O)n(CC(C)C)c4)n4ncnc(N)c34)C2)s1` [Example 355, (R)-N-(1-(4-amino-7-(1-isobutyl-6-oxo-1,6-dihydropyridin-3-yl)pyrrolo[2,1-f][1,2,4]triazin-5-yl)piperidin-3-yl)-4-(2-(dimethylamino)ethoxy)-2-methylthiazole-5-carboxamide] showed an IC50 of 47 nM.
With `Cc1nc(OCCN(C)C)c(C(=O)N[C@@H]2CCCN(c3cc(-c4ccnc(C#N)c4)n4ncnc(N)c34)C2)s1` [Example 356, (R)-N-(1-(4-amino-7-(2-cyanopyridin-4-yl)pyrrolo[2,1-f][1,2,4]triazin-5-yl)piperidin-3-yl)-4-(2-(dimethylamino)ethoxy)-2-methylthiazole-5-carboxamide] the IC50 was 13 nM.
With `CC(=O)N1CC=C(c2cc(N3CCC[C@@H](NC(=O)c4sc(C)nc4OC4CCN(C)CC4)C3)c3c(N)ncnn23)C1` [Example 357, (R)—N-(1-(7-(1-acetyl-2,5-dihydro-1H-pyrrol-3-yl)-4-aminopyrrolo[2,1-f][1,2,4]triazin-5-yl)piperidin-3-yl)-2-methyl-4-((1-methylpiperidin-4-yl)oxy)thiazole-5-carboxamide] the IC50 was 24 nM.
Compound `CC(=O)N1CC=C(c2cc(N3CCC[C@@H](NC(=O)c4sc(C)nc4OC4CCNCC4)C3)c3c(N)ncnn23)C1` [Example 357E, (R)—N-(1-(7-(1-acetyl-2,5-dihydro-1H-pyrrol-3-yl)-4-aminopyrrolo[2,1-f][1,2,4]triazin-5-yl)piperidin-3-yl)-2-methyl-4-(piperidin-4-yloxy)thiazole-5-carboxamide] has an IC50 of 19 nM.
In the case of `CC(=O)N1CC=C(c2cc(N3CCC[C@@H](NC(=O)c4sc(C)nc4OC4CCN(C(C)C)CC4)C3)c3c(N)ncnn23)C1` [Example 358, (R)-N-(1-(7-(1-acetyl-2,5-dihydro-1H-pyrrol-3-yl)-4-aminopyrrolo[2,1-f][1,2,4]triazin-5-yl)piperidin-3-yl)-4-((1-isopropylpiperidin-4-yl)oxy)-2-methylthiazole-5-carboxamide], the IC50 is reported as 29 nM.
`Cc1nc(OC2CCN(C)CC2)c(C(=O)N[C@@H]2CCCN(c3cc(-c4ccc(C#N)nc4)n4ncnc(N)c34)C2)s1` [Example 362, (R)-N-(1-(4-amino-7-(6-cyanopyridin-3-yl)pyrrolo[2,1-f][1,2,4]triazin-5-yl)piperidin-3-yl)-2-methyl-4-((1-methylpiperidin-4-yl)oxy)thiazole-5-carboxamide] gave an IC50 of 19 nM.
With `Cc1nc(OC2CCN(C(C)C)CC2)c(C(=O)N[C@@H]2CCCN(c3cc(-c4ccc(C#N)nc4)n4ncnc(N)c34)C2)s1` [Example 363, (R)-N-(1-(4-amino-7-(6-cyanopyridin-3-yl)pyrrolo[2,1-f][1,2,4]triazin-5-yl)piperidin-3-yl)-4-((1-isopropylpiperidin-4-yl)oxy)-2-methylthiazole-5-carboxamide] the IC50 was 7 nM.
Work on `CC(=O)N1CC=C(c2cc(N3CCC[C@@H](NC(=O)c4[nH]c5ccccc5c4OCCN(C)C)C3)c3c(N)ncnn23)C1` [Example 364, (R)—N-(1-(7-(1-acetyl-2,5-dihydro-1H-pyrrol-3-yl)-4-aminopyrrolo[2,1-f][1,2,4]triazin-5-yl)piperidin-3-yl)-3-(2-(dimethylamino)ethoxy)-1H-indole-2-carboxamide] yielded an IC50 of 12 nM.
`COC(=O)N1CC=C(c2cc(N3CCC[C@@H](NC(=O)c4[nH]c5ccccc5c4OCCN(C)C)C3)c3c(N)ncnn23)C1` [Example 365, Methyl (R)-3-(4-amino-5-(3-(3-(2-(dimethylamino)ethoxy)-1H-indole-2-carboxamido)piperidin-1-yl)pyrrolo [2,1-f][1,2,4]triazin-7-yl)-2,5-dihydro-1H-pyrrole-1-carboxylate] showed an IC50 of 21 nM.
`CN(C)CCOc1c(C(=O)N[C@@H]2CCCN(c3cc(-c4ccnc(C#N)c4)n4ncnc(N)c34)C2)[nH]c2ccccc12` [Example 366, (R)-N-(1-(4-amino-7-(2-cyanopyridin-4-yl)pyrrolo[2,1-f][1,2,4]triazin-5-yl)piperidin-3-yl)-3-(2-(dimethylamino)ethoxy)-1H-indole-2-carboxamide] was tested, and the IC50 was 32 nM.

From patent publication US20260250290A1 (BRISTOL-MYERS SQUIBB COMPANY, priority 2023, published 2026)
